{
  "source": "patent US6339101B1",
  "about": "“N-linked sulfonamides of N-heterocyclic carboxylic acids or isosteres for vision and memory disorders” (GPI NIL Holdings, Inc., priority 1998, dated 2002)",
  "key": {"[1]": {"tested_on": "retinal ganglion cell axons", "assay": "Protection of retinal ganglion cell axons from degeneration following optic nerve transection (Table V)", "type": "in vivo", "details": "± SEM", "from_the_text": "Efficacy of representative compounds from different immunophilin ligand series in protecting retinal ganglion cell axons from degeneration following optic nerve transection is set forth in Table V."}, "FKBP12": {"target": "FKBP12 (Homo sapiens, UniProt P62942)", "sequence (P62942 whole entry, species assumed)": "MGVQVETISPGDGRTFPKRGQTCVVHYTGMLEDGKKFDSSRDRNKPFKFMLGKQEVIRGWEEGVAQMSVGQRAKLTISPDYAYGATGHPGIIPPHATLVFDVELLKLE", "assay": "Ki test: inhibition of peptidyl-prolyl isomerase (rotamase) activity of FKBP", "type": "biochemical", "details": "apparent Ki; read-out: Ki rotomase", "quoted_text": "The inhibition of the prolyl peptidyl cis-trans isomerase activity of FKBP may be measured as an indicator of this affinity.\nThese values are obtained as apparent Ki's.\nThe cis-trans isomerization of an alanine-proline bond in a model substrate, N-succinyl-Ala-Ala-Pro-Phe-p-nitroanilide, is monitored spectrophotometrically in a chymotrypsin-coupled assay, which releases para-nitroanilide from the trans form of the substrate. The inhibition of this reaction caused by the addition of different concentrations of inhibitor is determined, and the data is analyzed as a change in first-order rate constant as a function of inhibitor concentration to yield the apparent Ki values.\nIn a plastic cuvette are added 950 ml of ice cold assay buffer (25 mM HEPES, pH 7.8, 100 nM NaCl), 10 ml of FKBP (2.5 mM in 10 mM Tris-Cl pH 7.5, 100 mM NaCl, 1 mM dithiothreitol), 25 ml of chymotrypsin (50 mg/ml in 1 mM HCl) and 10 ml of test compound at various concentrations in dimethyl sulfoxide. The reaction is initiated by the addition of 5 ml of substrate (succinyl-Ala-Phe-Pro-Phe-para-nitroanilide, 5 mg/ml in 2.35 mM LiCl in trifluoroethanol).\nThe absorbance at 390 nm versus time is monitored for 90 seconds using a spectrophotometer and the rate constants are determined from the absorbance versus time data files."}, "[2]": {"tested_on": "retinal ganglion cells and optic nerve axons", "assay": "In vivo retinal ganglion cell and optic nerve axon tests after optic nerve transection (Table 1)", "set-up": "species or system Sprague Dawley rats", "details": "90 days after optic nerve transection", "from_the_text": "All eyes and optic nerve stumps were removed."}, "[3]": {"tested_on": "retinal ganglion cells, optic nerve axons and myelin", "assay": "Retinal ischemia by raised intraocular pressure", "type": "in vivo, rats", "details": "28 days after 1 hour retinal ischemia", "from_the_text": "Retinal ganglion cells were retrogradely labeled in adult rats by bilateral injection of fluorogold in their lateral geniculate nuclei. Labeled ganglion cells in the normal rat retina appear as white profiles against the dark background (FIG. 1A). Complete retinal ischemia was produced by infusing normal saline solution into the retinal vitreous cavity of each eye until the intraocular pressure exceeded arterial blood pressure. 28 days after the ischemic episode extensive degeneration of retinal ganglion cell was evidenced by massive reduction in the density of fluorogold labeled cells (FIG. 1B).\nOptic nerves from vehicle treated cases examined 28 days after a 1 hour retinal ischemia episode are characterized by a decreased density of optic nerve axons and the appearance of numerous degenerating myelin figures (bright white filled circles)."}, "retina": {"tested_on": "retina", "assay": "Streptozotocin induced diabetes, retinal neovascularization and neuron loss", "type": "in vivo", "details": "28 day treatment beginning 8 weeks after onset of streptozotocin diabetes"}, "retinal ganglion cells": {"tested_on": "retinal ganglion cells", "assay": "Example 18: optic nerve transection, ganglion cell survival and axonal dying back", "type": "in vivo, Sprague Dawley rats", "details": "10 mg/kg/day s.c. for 28 days; 90 days after transection", "from_the_text": "Transection of the mammalian optic nerve results in a brief period of abortive regeneration, but the majority of axotomized neurons die and the axons from many persisting ganglion cells die back beyond the optic nerve head."}, "[4]": {"assay": "Morris watermaze spatial learning and memory in aged rodents", "type": "in vivo, C57BL/6N-Nia mice", "details": "aged impaired mice, 10 mg/kg daily, after 3 weeks of dosing; vs young mice", "from_the_text": "The Morris watermaze is widely used for assessing spatial memory formation and retention in experimental animals. The test depends on the animal's ability to utilize spatial visual information in order to locate a submerged escape platform in a water tank. It is important that the tank itself be as devoid of specific visual features as possible—thus, it is always circular in shape, the sides are kept smooth and in uniform dull colors, and the water is rendered opaque with nontoxic watercolor pigment or powdered milk. This is to ensure that the animal navigates only by the use of more distant visual cues, or by the use of intra-maze cues specifically provided by the experimenter.\nThe animals' path, speed, and swim time are tracked with a ceiling camera for later computerized analysis. Over the course of several successive trials, spatial learning can therefore be defined as a drop of distance swum, or time elapsed, from placement in the tank until escape onto the invisible platform. […]\nRetention testing began after 3 weeks of dosing using the same methods as the acquisition phase. Swim Distances (cm) were analyzed in a 7×5 ANOVA including Groups and Blocks (1-5) as factors in the analysis, treating Blocks as a repeated measure."}, "[5]": {"assay": "Clearance (Table V comments)", "type": "in vitro ADME"}},
  "data": [
    {"smiles": "O=C(SCCCc1ccccc1)C1CCCN1C(=O)NC12CC3CC(CC(C3)C1)C2", "note": "(stereo not shown) [B]", "values": [
      {"measurement": "RT-RGC azon density 11 days after ON Transection ( axon rescued)", "setting": "[1]", "value": "100.0% ±5.2% SEM"}
    ]},
    {"smiles": "CCC(C)(C)C(=O)C(=O)N1CCCC[C@H]1C(=O)SCCC(c1ccccc1)c1ccccc1", "note": "[K]", "values": [
      {"measurement": "RT-RGC azon density 11 days after ON Transection ( axon rescued)", "setting": "[1]", "value": "13.0% ±4.2% SEM"}
    ]},
    {"smiles": "CCC(C)(C)C(=O)C(=O)N1CCCC[C@H]1C(N)=O", "note": "[H]", "values": [
      {"measurement": "RT-RGC azon density 11 days after ON Transection ( axon rescued)", "setting": "[1]", "value": "30.3% ±8.0% SEM"}
    ]},
    {"smiles": "CCC(C)(C)C(=O)C(=O)N1CCC[C@H]1C(=O)CCCCc1cccnc1", "note": "[J]", "values": [
      {"measurement": "RT-RGC azon density 11 days after ON Transection ( axon rescued)", "setting": "[1]", "value": "15.8% ±4.8% SEM"}
    ]},
    {"smiles": "CCC(C)(C)C(=O)C(=O)N1CCCC[C@H]1C(=O)O", "note": "[G]", "values": [
      {"measurement": "RT-RGC azon density 11 days after ON Transection ( axon rescued)", "setting": "[1]", "value": "34.0% ±4.8% SEM"}
    ]},
    {"smiles": "CCC(C)(C)C(=O)C(=O)N1CCS[C@H]1C(=O)OCCCc1cccnc1", "note": "[F]", "values": [
      {"measurement": "RT-RGC azon density 11 days after ON Transection ( axon rescued)", "setting": "[1]", "value": "55.1% ±5.9% SEM"}
    ]},
    {"smiles": "CCC(C)(C)C(=O)C(=O)N1CCC[C@H]1C(=O)SCCC(c1ccccc1)c1ccccc1", "note": "[M]", "values": [
      {"measurement": "RT-RGC azon density 11 days after ON Transection ( axon rescued)", "setting": "[1]", "value": "−6.3", "unit": "% +3.9% SEM"}
    ]},
    {"smiles": "CCC(C)(C)C(=O)C(=O)N1CCC[C@H]1C(=O)O", "note": "[L]", "values": [
      {"measurement": "RT-RGC azon density 11 days after ON Transection ( axon rescued)", "setting": "[1]", "value": "7.8% ±3.0% SEM"}
    ]},
    {"smiles": "CCC(C)(C)C(=O)C(=O)N1CCC[C@H]1C(=O)OCCCc1cccnc1", "note": "[GPI 1046]", "values": [
      {"measurement": "Ki", "setting": "FKBP12", "value": 0.0075, "unit": "µM"},
      {"measurement": "RGC Counts (mean density + SEM of Fluoro-gold labeled retinal ganglion cells in 400 μm × 400 μm gridfields)", "setting": "[2]; 10 mg/kg/day sc for 28 days", "value": "67.9 ± 5.8"},
      {"measurement": "increased ON axon density (adjusted for optic nerve diameter)", "setting": "[2]; 14 days treatment", "value": 1.5, "unit": "X"},
      {"measurement": "increased ON axon density (adjusted for optic nerve diameter)", "setting": "[2]; 28 days treatment", "value": 5.0, "unit": "X"},
      {"measurement": "RT-RGC azon density 11 days after ON Transection ( axon rescued)", "setting": "[1]", "value": "60.5% ±3.9 SEM"},
      {"measurement": "protection of optic nerve axons from degeneration", "setting": "[3]", "value": "protected the majority of optic nerve axons from degeneration"},
      {"measurement": "loss of neurons in INL and GCL", "setting": "retina", "value": "appeared to decrease the loss of neurons"},
      {"measurement": "neovascularization in PR, ONL, OPL and INL of retina", "setting": "retina", "value": "reduced neovascularization"},
      {"measurement": "neuronal loss in the ONL", "setting": "retina", "value": "did not appear to protect"},
      {"measurement": "ganglion cell population spared", "setting": "retinal ganglion cells", "value": 25, "unit": "%"},
      {"measurement": "preservation of axons of protected neurons in proximal stump", "setting": "retinal ganglion cells", "value": "preserved the axons of virtually all protected neurons"},
      {"measurement": "difference between young and aged impaired GPI-1046 treated groups, retention phase", "setting": "[4]", "value": "no longer any statistically significant difference"}
    ]},
    {"smiles": "CCC(C)(C)C(=O)C(=O)N1CCCC[C@H]1C(=O)SC(CCc1ccccc1)CCc1ccccc1", "note": "[E]", "values": [
      {"measurement": "Ki", "setting": "FKBP12", "value": 0.02, "unit": "µM"},
      {"measurement": "Clearance", "setting": "[5]", "value": 41.8, "unit": "µL/min"},
      {"measurement": "RT-RGC azon density 11 days after ON Transection ( axon rescued)", "setting": "[1]", "value": "56.6% ±9.4% SEM"}
    ]},
    {"smiles": "O=C(SCCCc1ccccc1)[C@@H]1CCCN1S(=O)(=O)Cc1ccccc1", "note": "[C]", "values": [
      {"measurement": "RT-RGC azon density 11 days after ON Transection ( axon rescued)", "setting": "[1]", "value": "60.4% ±3.1% SEM"}
    ]},
    {"smiles": "O=C(OCCCCc1ccccc1)[C@@H]1CCCCN1S(=O)(=O)Cc1ccccc1", "note": "[D]", "values": [
      {"measurement": "RT-RGC azon density 11 days after ON Transection ( axon rescued)", "setting": "[1]", "value": "58.4% ±6.4% SEM"}
    ]}
  ]
}
